Assay results: PubChem BioAssay AID1963842 (Molecular Pharmacology Branch, DTP, NCI, 2024)

Test system: 677734-321-R-J1-PDC complex spheroid viability
Experiment: Anticancer human tumor 677734-321-R-J1-PDC patient-derived soft tissue sarcoma cell line growth inhibition [POLQ]
Details: for IC50: curve of first compound; for viability, T/C: stronger effect = lower value; active means viability on the fitted dose curve at most 10% of control; inactive means the rest
In short: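 Growth inhibition in 3D: complex spheroids (tumor PDC, HUVEC, MSC) treated with POLQ inhibitor combinations; where Cmax unknown, highest tested concentration 10 microM, except SN-38 at 1 microM.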

[1] = second compound 0.0316 µM, first compound 0.00316 µM
[2] = second compound 0.0316 µM, first compound 0.01 µM
[3] = second compound 0.0316 µM, first compound 0.0316 µM
[4] = second compound 0.0316 µM, first compound 0.1 µM
[5] = second compound 0.0316 µM, first compound 0.316 µM
[6] = second compound 0.0316 µM, first compound 1 µM
[7] = second compound 0.1 µM, first compound 0.00316 µM
[8] = second compound 0.1 µM, first compound 0.01 µM
[9] = second compound 0.1 µM, first compound 0.0316 µM
[10] = second compound 0.1 µM, first compound 0.1 µM
[11] = second compound 0.1 µM, first compound 0.316 µM
[12] = second compound 0.1 µM, first compound 1 µM
[13] = second compound 0.316 µM, first compound 0.00316 µM
[14] = second compound 0.316 µM, first compound 0.01 µM
[15] = second compound 0.316 µM, first compound 0.0316 µM
[16] = second compound 0.316 µM, first compound 0.1 µM
[17] = second compound 0.316 µM, first compound 0.316 µM
[18] = second compound 0.316 µM, first compound 1 µM
[19] = second compound 1 µM, first compound 0.00316 µM
[20] = second compound 1 µM, first compound 0.01 µM
[21] = second compound 1 µM, first compound 0.0316 µM
[22] = second compound 1 µM, first compound 0.1 µM
[23] = second compound 1 µM, first compound 0.316 µM
[24] = second compound 1 µM, first compound 1 µM
[25] = second compound 3.16 µM, first compound 0.00316 µM
[26] = second compound 3.16 µM, first compound 0.01 µM
[27] = second compound 3.16 µM, first compound 0.0316 µM
[28] = second compound 3.16 µM, first compound 0.1 µM
[29] = second compound 3.16 µM, first compound 0.316 µM
[30] = second compound 3.16 µM, first compound 1 µM
[31] = second compound 10 µM, first compound 0.00316 µM
[32] = second compound 10 µM, first compound 0.01 µM
[33] = second compound 10 µM, first compound 0.0316 µM
[34] = second compound 10 µM, first compound 0.1 µM
[35] = second compound 10 µM, first compound 0.316 µM
[36] = second compound 10 µM, first compound 1 µM
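Further: spheroids exposed to compounds for one week.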
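Wherever viability, T/C is given: 100% = vehicle DMSO treated spheroids.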

COc1cccc(OCCCN)c1-c1cc(Nc2cnc(C#N)cn2)n[nH]1 + Nc1ccc(C#CCN(C(=O)Cc2ncc(C(F)(F)F)cc2C(F)(F)F)c2ccc(F)cc2)nn1
6.21 nM: IC50 (second compound 0.0316 µM)
4.6 nM: IC50 (second compound 0.1 µM)
inactive: viability, T/C [1] 101% | viability, T/C [2] 13.8% | viability, T/C [7] 67.2% | viability, T/C [8] 14.3% | viability, T/C [13] 77% | viability, T/C [14] 17.7% | viability, T/C [19] 83.6% | viability, T/C [20] 25.5% | viability, T/C [25] 72.7% | viability, T/C [26] 13.8% | viability, T/C [31] 56.6%
active: viability, T/C [3] 5.82% | viability, T/C [4] 6.83% | viability, T/C [5] 7.28% | viability, T/C [6] 5.14% | viability, T/C [9] 6.58% | viability, T/C [10] 6.56% | viability, T/C [11] 8.96% | viability, T/C [12] 3.87% | viability, T/C [15] 5.86% | viability, T/C [16] 9.23% | viability, T/C [17] 6.18% | viability, T/C [18] 5.17% | viability, T/C [21] 6% | viability, T/C [22] 6.97% | viability, T/C [23] 6.56% | viability, T/C [24] 5.02% | viability, T/C [27] 9% | viability, T/C [28] 6.22% | viability, T/C [29] 7.97% | viability, T/C [30] 5.64% | viability, T/C [32] 9.16% | viability, T/C [33] 6.91% | viability, T/C [34] 7.72% | viability, T/C [35] 6.82% | viability, T/C [36] 5.03%
5.33 nM: IC50 (second compound 0.316 µM)
3.71 nM: IC50 (second compound 10 µM)
4.93 nM: IC50 (second compound 3.16 µM)
6.15 nM: IC50 (second compound 1 µM)

Cn1ncnc1[C@H]1c2n[nH]c(=O)c3cc(F)cc(c23)N[C@@H]1c1ccc(F)cc1 + Nc1ccc(C#CCN(C(=O)Cc2ncc(C(F)(F)F)cc2C(F)(F)F)c2ccc(F)cc2)nn1
inactive: viability, T/C (second compound 0.0316 µM, first compound 0.000316 µM) 79.4% | viability, T/C (second compound 0.0316 µM, first compound 0.001 µM) 105% | viability, T/C [1] 86.2% | viability, T/C [2] 93.1% | viability, T/C [3] 99.6% | viability, T/C [4] 79.8% | viability, T/C (second compound 0.1 µM, first compound 0.000316 µM) 92.4% | viability, T/C (second compound 0.1 µM, first compound 0.001 µM) 89.2% | viability, T/C [7] 97.3% | viability, T/C [8] 100% | viability, T/C [9] 95% | viability, T/C [10] 88.7% | viability, T/C (second compound 0.316 µM, first compound 0.000316 µM) 113% | viability, T/C (second compound 0.316 µM, first compound 0.001 µM) 111% | viability, T/C [13] 109% | viability, T/C [14] 97.4% | viability, T/C [15] 75.2% | viability, T/C [16] 72.8% | viability, T/C (second compound 1 µM, first compound 0.000316 µM) 112% | viability, T/C (second compound 1 µM, first compound 0.001 µM) 97.8% | viability, T/C [19] 93.3% | viability, T/C [20] 95.2% | viability, T/C [21] 85.8% | viability, T/C [22] 68.1% | viability, T/C (second compound 3.16 µM, first compound 0.000316 µM) 108% | viability, T/C (second compound 3.16 µM, first compound 0.001 µM) 95.2% | viability, T/C [25] 100% | viability, T/C [26] 98% | viability, T/C [27] 99.7% | viability, T/C [28] 93.7% | viability, T/C (second compound 10 µM, first compound 0.000316 µM) 115% | viability, T/C (second compound 10 µM, first compound 0.001 µM) 95.9% | viability, T/C [31] 101% | viability, T/C [32] 94.1% | viability, T/C [33] 97.9% | viability, T/C [34] 87.2%
> 100 nM: IC50 (second compound 0.0316 µM) | IC50 (second compound 0.1 µM) | IC50 (second compound 0.316 µM) | IC50 (second compound 1 µM) | IC50 (second compound 3.16 µM) | IC50 (second compound 10 µM)

O=C(c1cc(Cc2n[nH]c(=O)c3ccccc23)ccc1F)N1CCN(C(=O)C2CC2)CC1 + Nc1ccc(C#CCN(C(=O)Cc2ncc(C(F)(F)F)cc2C(F)(F)F)c2ccc(F)cc2)nn1
> 10000 nM: IC50 (second compound 0.0316 µM) | IC50 (second compound 0.1 µM) | IC50 (second compound 0.316 µM) | IC50 (second compound 1 µM) | IC50 (second compound 3.16 µM) | IC50 (second compound 10 µM)
inactive: viability, T/C [3] 97% | viability, T/C [4] 122% | viability, T/C [5] 101% | viability, T/C [6] 105% | viability, T/C (second compound 0.0316 µM, first compound 3.16 µM) 88.1% | viability, T/C (second compound 0.0316 µM, first compound 10 µM) 63.3% | viability, T/C [9] 110% | viability, T/C [10] 102% | viability, T/C [11] 98.6% | viability, T/C [12] 110% | viability, T/C (second compound 0.1 µM, first compound 3.16 µM) 83.8% | viability, T/C (second compound 0.1 µM, first compound 10 µM) 71.2% | viability, T/C [15] 110% | viability, T/C [16] 116% | viability, T/C [17] 104% | viability, T/C [18] 93.2% | viability, T/C (second compound 0.316 µM, first compound 3.16 µM) 96.1% | viability, T/C (second compound 0.316 µM, first compound 10 µM) 68.8% | viability, T/C [21] 109% | viability, T/C [22] 108% | viability, T/C [23] 96.5% | viability, T/C [24] 93% | viability, T/C (second compound 1 µM, first compound 3.16 µM) 92.7% | viability, T/C (second compound 1 µM, first compound 10 µM) 50.3% | viability, T/C [27] 123% | viability, T/C [28] 110% | viability, T/C [29] 89.4% | viability, T/C [30] 92.8% | viability, T/C (second compound 3.16 µM, first compound 3.16 µM) 90.9% | viability, T/C (second compound 3.16 µM, first compound 10 µM) 65.3% | viability, T/C [33] 109% | viability, T/C [34] 103% | viability, T/C [35] 103% | viability, T/C [36] 105% | viability, T/C (second compound 10 µM, first compound 3.16 µM) 91.9% | viability, T/C (second compound 10 µM, first compound 10 µM) 66.8%
